Measurements taken from patent US20060063759A1, “Tricyclic steroid hormone nuclear receptor modulators” (priority 2002, published 2006).
pKi: −log10 of the molar value.

biological target: T1, human MR (Homo sapiens, UniProt P08235); assay: Mineralocorticoid Receptor Binding Assay ([3H]-aldosterone); settings: [3H]-aldosterone binding, human MR expressed in Sf9 cells; read-out: MR Ki
T1 construct: The full length human MR gene is cloned from a human kidney or human brain cDNA library; His tag from the pAcHLT vector (own knowledge); made in house; host or cells: Sf9 insect cells (baculovirus, pAcHLT transfer vector)
T1 sequence (P08235 1-984): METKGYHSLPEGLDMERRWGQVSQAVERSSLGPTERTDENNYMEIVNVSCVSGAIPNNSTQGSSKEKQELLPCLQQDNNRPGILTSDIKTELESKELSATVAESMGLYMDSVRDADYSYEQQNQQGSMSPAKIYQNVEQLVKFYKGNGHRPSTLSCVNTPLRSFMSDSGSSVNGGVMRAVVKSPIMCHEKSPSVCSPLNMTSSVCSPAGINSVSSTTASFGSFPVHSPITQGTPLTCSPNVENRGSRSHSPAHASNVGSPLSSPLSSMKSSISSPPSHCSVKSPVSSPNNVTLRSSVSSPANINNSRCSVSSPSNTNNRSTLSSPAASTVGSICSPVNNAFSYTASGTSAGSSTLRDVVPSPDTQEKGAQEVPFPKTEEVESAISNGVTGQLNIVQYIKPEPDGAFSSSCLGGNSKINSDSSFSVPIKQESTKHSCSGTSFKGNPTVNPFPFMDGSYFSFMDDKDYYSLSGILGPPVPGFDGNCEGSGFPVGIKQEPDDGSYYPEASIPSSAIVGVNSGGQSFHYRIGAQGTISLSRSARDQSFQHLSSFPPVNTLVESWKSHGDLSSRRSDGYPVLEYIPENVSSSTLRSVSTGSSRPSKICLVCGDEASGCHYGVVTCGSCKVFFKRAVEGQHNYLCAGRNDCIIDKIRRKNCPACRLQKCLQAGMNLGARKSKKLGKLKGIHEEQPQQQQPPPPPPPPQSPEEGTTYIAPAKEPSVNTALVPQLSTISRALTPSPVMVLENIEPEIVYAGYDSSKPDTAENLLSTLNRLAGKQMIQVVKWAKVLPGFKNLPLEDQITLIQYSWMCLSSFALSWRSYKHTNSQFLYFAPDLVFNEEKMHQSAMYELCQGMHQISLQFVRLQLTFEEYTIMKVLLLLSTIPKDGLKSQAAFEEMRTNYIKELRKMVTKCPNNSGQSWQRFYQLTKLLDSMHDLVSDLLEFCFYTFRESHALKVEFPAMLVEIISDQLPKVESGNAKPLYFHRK
Description: All ligands, radioligands, solvents, and reagents employed in the binding assays are readily available from commercial sources, or can be readily synthesized by the ordinarily skilled artisan.
The full length human MR gene is cloned from a human kidney or human brain cDNA library. […] The PCR reaction is performed in a final volume of 50 μl containing about 1 μl of a 50× stock solution of polymerase; about 1 μl of a 50× stock solution of dNTP; about 5 μl of an appropriate PCR buffer; about 1 μl of each primer; about […] of a H. kidney or H. brain cDNA library; and about 36 μl of water. The reaction is allowed to denature for about 30 seconds at 95 degrees Celsius, anneal for about 30 seconds at 55 degrees Celsius, and extend for about 5 minutes at 72 degrees Celsius, the sequence being repeated for a total of about 35 cycles. […] To extract the cDNA product from the agarose gel, the QIAEX II Gel Extraction protocol (QIAGEN, Inc.) is employed according to the manufacturer's instructions. Following extraction, the MR cDNA is cloned into an appropriate cloning vector (Zero Blunt TOPO PCR Cloning Kit Invitrogen, Inc.) and a pAcHLT-baculovinis transfer vector (B.D./Pharminogen), then expressed in SF9 insect cells, essentially according to manufacturer's instructions. Sf9 cells are grown at a scale where gram quantity cell pellets are obtained for subsequent use in the MR binding assay. Harvested cell pellets are lysed by repeated freeze-thaw cycles (about 4) in a suitable lysis buffer then centrifuged at about 1×10^3 G (with the supernatant being saved for future assays).
MR binding assays are performed in a final total volume of about 250 μl containing about 20-25 μg of protein and 0.5 nM of [^3H]-aldosterone plus varying concentrations of test compound or vehicle. The assay binding buffer consists of 30 mM sodium molybdate, 30 mM of TRIS-HCl, 5 mM sodium phosphate, 5 mM sodium pyrophosphate, and about 10% glycerol, pH=7.5.
Incubations are carried out at 4 degrees Celsius with shaking for about 16 hours. 200 μl aliquots of each incubation are filtered onto Millipore HA 0.45 micron 96-well filter plates, pre-moistened with cold 30 mM TRIS-HCl. The filter plates are suctioned dry with vacuum and immediately washed 3× with cold 30 mM TRIS-HCl. The plates are then punched out and the amount of receptor-ligand complex is determined by liquid scintillation counting using 4 ml of Ready Protein Plus™ liquid scintillation cocktail.
IC50 values (defined as the concentration of test compound required to decrease [^3H]-aldosterone binding by 50%/o) are then determined.

Row | pKi | Structure (SMILES)
1 | > 6.30 | CC(=O)Nc1nc2c(s1)/C(=C\c1cccc(NS(C)(=O)=O)c1)c1ccccc1CC2 [Example 558]
2 | > 6.30 | O=c1[nH]c2cc(/C=C3\c4ccc(F)cc4OCc4ncsc43)ccc2n1CCN1CCOCC1 [Example 719]
3 | > 6.30 | C/C(=C1/c2ccccc2CCc2cc(OCC3CC3)ccc21)c1cccc(NS(C)(=O)=O)c1 [Example 826]
4 | > 6.30 | C/C(=C1\c2ccccc2CCc2cc(C)ccc21)c1cccc(NS(C)(=O)=O)c1 [Example 781]
5 | > 6.30 | O=[N+]([O-])c1cccc(/C=C2/c3ccccc3OCc3c(Cl)cccc32)c1 [Example 621]
6 | > 6.30 | Cc1ccc2c(c1)/C(=C/c1cccc(NS(C)(=O)=O)c1)c1ccccc1CO2 [Example 678]
7 | > 6.30 | C/C(=C1/c2ccccc2COc2cc(Cl)ccc21)c1cccc(NS(C)(=O)=O)c1 [Example 792]
8 | > 6.30 | CS(=O)(=O)Nc1cccc(/C=C2/c3ccccc3CCc3cc(F)ccc32)c1 [Example 354]
9 | > 6.30 | CS(=O)(=O)Nc1cccc(C=C2c3ccccc3CSc3c(Cl)cc(Cl)cc32)c1 [Example 697]
10 | > 6.30 | O=c1[nH]c2ccc(/C=C3/c4ccc(F)cc4OCc4ncccc43)cc2[nH]1 [Example 625]
11 | > 6.30 | Cn1c(=O)n(C)c2cc(/C=C3\c4ccccc4COc4cc(F)ccc43)ccc21 [Example 717]
12 | > 6.00 | CS(=O)(=O)Nc1ccc2c(c1)CCc1ccccc1/C2=C/c1cccc(O)c1 [Example 337]
13 | > 6.30 | COCC(=C1c2ccccc2CCc2cc(Cl)ccc21)c1cccc(NS(C)(=O)=O)c1 [Example 756, N-{3-[1-(2-Chloro-10,11-dihydro-dibenzo[a,d]cyclohepten-5-ylidene)-2-methoxy-ethyl]-phenyl}-methanesulfonamide]
14 | > 6.30 | CS(=O)(=O)Nc1cccc(C=C2c3ccccc3CCc3ccsc32)c1 [Example 493]
15 | > 6.30 | C/C(=C1/c2ccccc2CCc2cc(C)ccc21)c1cccc(NS(C)(=O)=O)c1 [Example 782]
16 | > 6.30 | CS(=O)(=O)Nc1cccc(/C=C2\c3ccc(F)cc3CCc3ncccc32)c1 [Example 486, (E)-N-[3-(8-fluoro-10,11-dihydro-benzo[4,5]cyclohepta[1,2-b]pyridin-5-ylidenemethyl)-phenyl]-methanesulfonamide]
17 | > 6.30 | Cc1cccc2c1/C(=C/c1cccc(NS(C)(=O)=O)c1)c1ccccc1CC2 [Example 313]

Further lines, the compound ahead of its results:

Row | Structure (SMILES) | pKi
18 | CC(C)S(=O)(=O)Nc1ccc(C=C2c3ccccc3CCc3ccccc32)cc1 [Example 107, Propane-2-sulfonic acid [4-(10,11-dihydro-dibenzo[a,d]cyclohepten-5-ylidenemethyl)-phenyl]-amide] | > 6.30
19 | O=c1[nH]c2cc(/C=C3/c4ccc(F)cc4OCc4ncccc43)ccc2n1CCN1CCOCC1 [Example 618, (E)-5-(8-Fluoro-11H-10-oxa-1-aza-dibenzo[a,d]cyclohepten-5-ylidenemethyl)-1-(2-morpholin-4-yl-ethyl)-1,3-dihydro-benzoimidazol-2-one] | > 6.30
20 | CS(=O)(=O)Nc1cccc(/C=C2/c3ccccc3CCc3ccncc32)c1 [Example 513] | > 6.00
21 | CSc1cccc(C=C2c3ccccc3CCc3ccccc32)c1 [Example 278, 5-(3-Methylsulfanyl-benzylidene)-10,11-dihydro-5H-dibenzo[a,d]cycloheptene] | > 6.30
22 | COc1ccc2c(c1)CCc1cc(Cl)ccc1/C2=C\c1cccc(NS(C)(=O)=O)c1 [Example 425] | > 6.30
23 | CCCCOc1ccc2c(c1)OCc1ccccc1/C2=C(/C)c1cccc(NS(C)(=O)=O)c1 [Example 816] | > 6.30
24 | O=c1[nH]c2ccc(CC3c4ccccc4COc4cc(F)ccc43)cc2[nH]1 (centres unmarked) [Example 645] | > 6.30
25 | CCOc1ccc2c(c1)OCc1ccccc1/C2=C(\C)c1cccc(NS(C)(=O)=O)c1 [Example 815] | > 6.30
26 | CS(=O)(=O)Nc1cccc(C=C2c3ccccc3CSc3c(Cl)cccc32)c1 [Example 720] | > 6.30
27 | COc1ccc2c(c1)CCc1cc(Cl)ccc1/C2=C/c1cccc(NS(C)(=O)=O)c1 [Example 426] | > 6.30
28 | C/C(=C1\c2ccccc2CCc2cc(OCC3CC3)ccc21)c1cccc(NS(C)(=O)=O)c1 [Example 825] | > 6.30
29 | C/C(=C1\c2ccccc2COc2cc(Cl)ccc21)c1cccc(NS(C)(=O)=O)c1 [Example 791] | > 6.30
